Values quoted from earlier work, collected in patent publication US11033509B2 (BIOGEN MA INC., priority 2016, dated 2021).
Counter-ions that a name gives are not always drawn.

Settings: DMF absorbed in vivo and converted to MMF

half-life of MMF: approximately 1 hour
Structure (SMILES): COC(=O)/C=C/C(=O)O [MMF, monomethyl fumarate]
